The values below come from patent US6696484B2, “Method and compositions for regulation of 5-alpha reductase activity” (University of Chicago Office of Technology and Intellectual …, priority 1997, dated 2004).

pIC50: −log10 of the molar value. Values joined by “and” are separate entries in the source; they are usually repeats but may differ in a detail not shown here. Equal values may be shown once. Read-outs that look alike come from different tables or passages of the source.

In assay [1] the test system is 5α-reductase. The assay can be described thus: Cell-free 5α-reductase assay, isozyme not given. As to conditions: isozyme not stated. The format is biochemical, human.
Assay [2] relates to 5α-reductase. Briefly: Whole-cell 5α-reductase assay, isozyme not given. As to conditions: isozyme not stated. The format is cell-based, human. The source says:
Intact cells containing 5α-reductase, their microsomes, or nuclear preparations can also be used to screen 5α-reductase inhibitors.

Assay [3] concerns the target T1, type 2 human 5α-reductase (Homo sapiens, UniProt P31213).
T1 sequence (P31213 1-254): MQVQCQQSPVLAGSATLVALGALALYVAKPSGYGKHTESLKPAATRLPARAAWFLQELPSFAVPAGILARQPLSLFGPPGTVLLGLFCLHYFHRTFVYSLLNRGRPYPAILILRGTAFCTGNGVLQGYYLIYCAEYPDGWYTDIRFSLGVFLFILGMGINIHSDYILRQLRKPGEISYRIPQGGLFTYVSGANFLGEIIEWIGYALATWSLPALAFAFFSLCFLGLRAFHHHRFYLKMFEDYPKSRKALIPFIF
The assay can be described thus: Whole-cell assay of 5α-reductase, type 2. The format is cell-based. More on the design: expressed in transfected cells; host or cells: rat 1A cells infected with pMV7 retrovirus and selected with G418; intact cells for the whole-cell assay. As to conditions: for inhibition at 100 µM: read-out: percent inhibition of 5α-reductase activity, whole-cell assay, Type 2, 100 μM compound; for pIC50: rat 1A cells expressing human type 2 5α-reductase.

For assay [4], the target named is T2, type 1 human 5α-reductase (Homo sapiens, UniProt P18405).
T2 sequence (P18405 1-259): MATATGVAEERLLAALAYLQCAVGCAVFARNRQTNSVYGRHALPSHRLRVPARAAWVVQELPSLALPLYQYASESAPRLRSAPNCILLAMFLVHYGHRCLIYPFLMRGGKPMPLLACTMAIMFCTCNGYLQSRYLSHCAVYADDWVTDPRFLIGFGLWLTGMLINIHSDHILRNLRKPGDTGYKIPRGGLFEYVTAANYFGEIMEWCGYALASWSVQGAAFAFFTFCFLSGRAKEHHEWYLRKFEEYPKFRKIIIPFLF
Briefly: Cell-free enzymatic assay of 5α-reductase (testosterone to DHT), type 1. As to conditions: for inhibition at 100 µM: read-out: percent inhibition of 5α-reductase activity, cell-free assay, Type 1, 100 μM compound.

Assay [5] concerns the target T1, type 2 human 5α-reductase. Briefly: Cell-free enzymatic assay of 5α-reductase (testosterone to DHT), type 2. The format is biochemical. More on the design: expressed in transfected cells; host or cells: rat 1A cells infected with pMV7 retrovirus and selected with G418; microsomes for the cell-free assay. As to conditions: for inhibition at 100 µM: read-out: percent inhibition of 5α-reductase activity, cell-free assay, Type 2, 100 μM compound.

Assay [6] addresses T2, type 1 human 5α-reductase. Briefly: Whole-cell assay of 5α-reductase, type 1. The format is cell-based. Also on record: expressed in transfected cells; host or cells: rat 1A cells infected with pMV7 retrovirus and selected with G418; microsomes for the cell-free assay, intact cells for the whole-cell assay. As to conditions: for inhibition at 100 µM: read-out: percent inhibition of 5α-reductase activity, whole-cell assay, Type 1, 100 μM compound; for pIC50: rat 1A cells expressing human type 1 5α-reductase.

For assay [7], the system named is 5α-reductase. As to conditions: Liao and Hiipakka 1995, cited from earlier work; for activity against 5α-reductase, in vitro enzyme assay: at 200 μM.
Assay [8] relates to hamster flank organ. The assay can be described thus: Testosterone-stimulated growth of the pigmented macules of hamster flank organs.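 As to all read-outs here: prepubertal Syrian golden hamsters castrated at 4 weeks, ethanol vehicle on one flank organ, macule long and short axes gauged by caliper 1 day after final dose.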 The format is in vivo, Syrian golden hamsters. As to conditions: 0.5 μg testosterone + 1 mg compound topically daily, 18 days; for Pigmented macule area: castrated male hamsters, mean±SEM.
Assay [9] has as its system hamster flank organ. The assay can be described thus: DHT-stimulated growth of the pigmented macules of hamster flank organs. The format is in vivo, Syrian golden hamsters. As for the experimental part: Prepubertal male Syrian golden hamsters, castrated at 4 weeks of age, were obtained from Harlan Sprague-Dawley Co. (Madison, Wis.). Bilateral orchiectomy was performed under anesthesia. The hamsters were housed individually in plastic cages and had free access to Purina rodent chow and water, and were maintained on a 12-h light/12-h dark cycle. Hamsters were used 1-2 weeks after castration and were divided into groups of 4-6 or 9-11 animals. Hair on the lower back of each animal was shaved weekly with an electric hair clipper to expose the flank organs. A treatment solution (5 μl with ethanol as vehicle) was applied topically to the flank organ once a day using a Pipetteman and a polypropylene disposable tip. The treatment solution contained either (a) ethanol alone, (b) an androgen (testosterone or DHT), (c) a test compound, or (d) a combination of an androgen and a test compound. For each hamster, one flank organ was treated while the other organ was not treated. The surface of the flank organ was wiped with an alcohol pad to remove residual compound before each treatment. At the end of each experiment (18 days), animals were killed by CO2 asphyxiation or an intraperitoneal injection of […]. Flank organs from both the treated and untreated sides were examined 1 day after the last treatment by the methods described below. The body weight of each animal was recorded before and after treatment. Experiments were repeated at least twice to assure reproducibility. The “Guide for the care and use of laboratory animals” (NIH publication no. 85-28, revised 1988) and the regulations of the U.S. Department of Agriculture were followed throughout the experiments.
In this study, the growth of the flank organ was determined by measuring the length of the long axis and the short axis of the pigmented spot (pigmented macule) with a caliper with a digital display (Digimatic; Mitutoyo Corporation, Japan). The surface area (in millimeters squared) of the spot was calculated as the product of the long axis and the short axis (Gomez and Frost 1975). The areas of the pigmented spots after treatment with ethanol alone or with test compound (in ethanol) alone were less than 10% of the areas of the pigmented spots after treatment with testosterone alone. These values were deducted from the experimental values and are compared in Tables 8-10. For each experiment, the means and standard error of the means (SEM) of the areas of the untreated and treated macules were computed separately for each treatment group. Within each experiment, an overall F-test (one way ANOVA) was used to test the null hypothesis that the mean sizes of the treated macules were the same in all groups, and Dunnett's multiple range test was used to examine differences between the treatment groups (i.e., green tea catechin+androgen, fatty acid+androgen, EGC derivative+androgen, or fatty acid derivative+androgen) and the control group (androgen treatment only). The Mann-Whitney test was used to examine differences between DHT-treated and the DHT and EGCG-treated groups. P-values <0.05 were taken as indicating statistical significance in all tests (Hochberg and Tamhane 1987).
Each group comprised four to six castrated male hamsters. At the end of the treatment period, the areas of the pigmented macules were determined and are presented as means±SEM in Table 8.
Each group comprised four to six castrated male hamsters. At the end of the treatment period, the areas of the pigmented macules were determined and are expressed as means±SEM as shown in Table 10.

On to `Oc1cccc(O)c1O` [Pyrogallol, 1,2,3-trihydroxybenzene], for which, in the assay with 5α-reductase [1], the “inhibitory activity in the cell-free assay” value is “weak inhibitory activity”. Also, the “inhibitory activity in the whole-cell assay” value in the assay with 5α-reductase [2] is “weak inhibitory activity”. The inhibition at 100 µM in [3] worked out at 15%.
In the case of `O=C(/C=C/c1ccc(O)c(O)c1)OCCc1ccccc1` [Caffeic acid phenethyl ester], the inhibition at 100 µM was 97% in assay [4], 36% in [5], 99% in [6] and 98% in assay [3]. This compound also had a negative logarithm of the IC50 (pIC50) in the assay with 5α-reductase [1] of 4.60.
Consider `CCCCC/C=C\C/C=C\C/C=C\CCCCC(=O)OC` [Methyl ester of γ-linolenic acid], for which the pIC50 in the assay with 5α-reductase [1] and with 5α-reductase [2] was under 4.00 in each case. Moreover, the “inhibitory activity in the whole-cell assay” value in the assay on 5α-reductase [2] is “little activity”.
In the case of `O=C(O)c1cc(O)c(O)c(O)c1` [gallic acid, 3,4,5-trihydroxybenzoic acid], the “inhibitory activity in the cell-free assay” value in the assay with 5α-reductase [1] was “weak inhibitory activity”. Moreover, in the assay with 5α-reductase [2], the “inhibitory activity in the whole-cell assay” value is on record as “weak inhibitory activity”.
On to `Oc1ccccc1O` [Catechol, 1,2-dihydroxybenzene], for which the “inhibitory activity in the cell-free assay” value in the assay on 5α-reductase [1] is on record as “weak inhibitory activity”. For the same compound, the “inhibitory activity in the whole-cell assay” value with 5α-reductase [2] was “weak inhibitory activity”.
For `Oc1cc(O)c2c(c1)O[C@H](c1ccc(O)c(O)c1)[C@H](O)C2` [EC, epicatechin], the “activity against 5α-reductase, in vitro enzyme assay” value with 5α-reductase [7] was “not active”. In the assay on hamster flank organ [8], the “Inhibition (percent decrease in macule area vs androgen-treated macules)” value is given as 37% and the Pigmented macule area stood at 8.67 ± 1.08 mm^2.
The compound `CCCCC/C=C\C/C=C\C/C=C\CCCCC(=O)O[C@H]1CC[C@@]2(C)C(=CC[C@H]3[C@@H]4CC[C@H]([C@H](C)CCCC(C)C)[C@@]4(C)CC[C@@H]32)C1` [cholesterol ester of γ-linolenic acid] showed a pIC50 with 5α-reductase [1] of under 4.00. In the assay with 5α-reductase [2], the pIC50 was under 4.00 and the “inhibitory activity in the whole-cell assay” value was “little activity”.
With `CC/C=C\C/C=C\C/C=C\CCCCCCCC(=O)O` [Alpha-Linolenic Acid, Alpha-Linolenic Acid C18:3 CIS 9,12,15], the pIC50 in [4] is 5.10; in [5] (microsomes from rat 1A cells expressing human type 2 5α-reductase, read-out: Cell-free assay IC50, 5α-reductase Type 2), 5.05; in [6] it was 4.54; in assay [3], 4.64. Also, the inhibition at 100 µM in [4] came out at 99%; in [5] it was 84%; in assay [6], 82%; in [3], 86%.
As to `CCCCC/C=C\C/C=C\CCCCCCCC(=O)O` [Linoleic Acid, Linoleic Acid C18:2 CIS 9,12], the inhibition at 100 µM in assay [4] came out at 99%; in assay [5] it was 85%; in assay [6], 78%; in [3], 77%.
With `CCCC/C=C\CCCCCCCC(=O)O[C@@H]1Cc2c(O)cc(O)cc2O[C@@H]1c1cc(O)c(O)c(O)c1` [EGC-myristoleate, EGC-3-myristoleate], the “Inhibition (percent decrease in macule area vs androgen-treated macules)” value in the assay with hamster flank organ [8] is listed as 71%; with hamster flank organ [8] (listed as EGC-3 ester of MA), “about 70%”. Further, the Pigmented macule area in the assay with hamster flank organ [8] is given as 5.00 ± 0.42 mm^2. The negative-log IC50 (pIC50) in [6] and in assay [3] was over 4.82 throughout.
With `Oc1cc(O)c2c(c1)O[C@H](c1cc(O)c(O)c(O)c1)[C@H](O)C2` [EGC, epigallocatechin], the “activity against 5α-reductase, in vitro enzyme assay” value in the assay with 5α-reductase [7] is on record as “not active”. Moreover, the Pigmented macule area in the assay with hamster flank organ [8] is 10.75 ± 0.87 mm^2 and 5.50 ± 0.65 mm^2.
As for `CCCCC/C=C\C/C=C\C/C=C\CCCCC(=O)O[C@@H]1Cc2c(O)cc(O)cc2O[C@@H]1c1cc(O)c(O)c(O)c1` [EGC-γ-linoleneate acid, EGC-γ-linoleneate], the “Inhibition (percent decrease in macule area vs androgen-treated macules)” value with hamster flank organ [8] is listed as 68%; in the assay on hamster flank organ [8] (listed as EGC-3 ester of γ-LA) it was “about 70%”. Also, the Pigmented macule area in the assay with hamster flank organ [8] amounted to 5.50 ± 0.56 mm^2. Further, the pIC50 in assay [6] and in assay [3] was over 4.82 each time.
`C[C@]12CCC(=O)C[C@@H]1CC[C@@H]1[C@@H]2CC[C@]2(C)[C@@H](O)CC[C@@H]12` [DHT, 5α-dihydrotestosterone, reference compound]: the “Pigmented macule area, androgen alone (control)” value in the assay on hamster flank organ [9] (0.5 μg DHT alone topically daily, 18 days, mean±SEM) is 20.80 ± 1.10 mm^2 and 13.67 ± 0.96 mm^2. Also, in the assay with hamster flank organ [9] (0.5 μg DHT per flank organ per day), the “stimulation of flank organ growth relative to the maximum stimulation” value is reported as 50-70%.
With `COc1cc(/C=C/C(=O)CC(=O)/C=C/c2ccc(O)c(OC)c2)ccc1O` [Curcumin], the “Inhibition (percent decrease in macule area vs androgen-treated macules)” value with hamster flank organ [8] was determined as 87%; with hamster flank organ [9] (0.5 μg DHT + 1 mg compound topically daily, 18 days), 31%. Also, the Pigmented macule area in the assay with hamster flank organ [8] was determined as 2.40 ± 0.65 mm^2; in the assay on hamster flank organ [9] (0.5 μg DHT + 1 mg compound topically daily, 18 days, mean±SEM), 9.50 ± 0.21 mm^2.
In the case of `O=C(O[C@@H]1Cc2c(O)cc(O)cc2O[C@@H]1c1ccc(O)c(O)c1)c1cc(O)c(O)c(O)c1` [ECG, epicatechin gallate], on 5α-reductase [7] (read-out: IC50, 5α-reductase, in vitro enzyme assay), the negative logarithm of the IC50 (pIC50) was 4.70 to 5.00. Also, the negative logarithm of the IC50 (pIC50) in assay [5] was 4.16. In the assay with hamster flank organ [8], the “Inhibition (percent decrease in macule area vs androgen-treated macules)” value came to 59% and the Pigmented macule area is listed as 5.75 ± 0.57 mm^2.

Usually inhibition stands for the percentage by which the read-out fell short of the control. As usually defined, the pIC50 is the IC50 on a negative log10 scale, so that one unit is a factor of ten.
